Experimental data as given in ChEMBL document CHEMBL1201862, “PubChem BioAssay data set” (2004).
Activity calls are given as the source filed them.

Columns and labels:
[1] = microbe, parasite or virus in culture; format: functional; details: Mycobacterium tuberculosis
[2] = cells; format: functional
[3] = biological target: Luciferin 4-monooxygenase (Photinus pyralis, UniProt P08659); assay: inhibition of purified Photinus pyralis luciferase – biochemical, luminescence, dose response (AID 1891)
[4] = Luminescence Cell-Based Dose Confirmation HTS to Identify Inhibitors of Platelet Dense Granule Release. [Related pubchem assays: 1663 (Primary HTS), 1678 (Summary of Project)]; format: functional
[5] = NIH-3T3 fibroblast cytotoxicity, dose response, cytotoxicity control, cell-based, fluorescence, Alamar Blue, secondary assay (AID 2327); format: functional;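 also: NIH-3T3 mouse fibroblasts cultured with fluconazole at 8 µg/mL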
[6] = fluconazole-exposed Candida albicans growth modulators – fluorescence, retest, confirmation (AID 2467); format: functional, cell-based
[7] = biological target: T1, Carboxy-terminal domain RNA polymerase II polypeptide A small phosphatase 1 (Homo sapiens, UniProt Q9GZU7); assay: CTDSP1 inhibitors, concentration-response, biochemical, absorbance readout, ultra-high-throughput screen actives (AID 540297); format: functional
T1 sequence (Q9GZU7 whole entry): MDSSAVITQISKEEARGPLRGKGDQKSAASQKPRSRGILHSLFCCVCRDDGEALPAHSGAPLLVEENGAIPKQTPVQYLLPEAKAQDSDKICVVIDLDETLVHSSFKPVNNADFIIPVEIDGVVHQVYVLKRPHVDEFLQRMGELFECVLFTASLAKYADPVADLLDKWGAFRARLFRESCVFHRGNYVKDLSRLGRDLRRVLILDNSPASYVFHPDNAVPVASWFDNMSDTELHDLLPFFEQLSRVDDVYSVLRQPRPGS

[8] = biological target: T2, Protein RecA (Mycobacterium tuberculosis, UniProt P9WHJ3); assay: Fluorescence Cell-Free Homogeneous Dose Retest to Identify Inhibitors of RecA-Intein Splicing Activity. [Related pubchem assays (depositor defined):AID2097, AID2223, AID489010, AID492950]; format: functional
T2 sequence (P9WHJ3 whole entry): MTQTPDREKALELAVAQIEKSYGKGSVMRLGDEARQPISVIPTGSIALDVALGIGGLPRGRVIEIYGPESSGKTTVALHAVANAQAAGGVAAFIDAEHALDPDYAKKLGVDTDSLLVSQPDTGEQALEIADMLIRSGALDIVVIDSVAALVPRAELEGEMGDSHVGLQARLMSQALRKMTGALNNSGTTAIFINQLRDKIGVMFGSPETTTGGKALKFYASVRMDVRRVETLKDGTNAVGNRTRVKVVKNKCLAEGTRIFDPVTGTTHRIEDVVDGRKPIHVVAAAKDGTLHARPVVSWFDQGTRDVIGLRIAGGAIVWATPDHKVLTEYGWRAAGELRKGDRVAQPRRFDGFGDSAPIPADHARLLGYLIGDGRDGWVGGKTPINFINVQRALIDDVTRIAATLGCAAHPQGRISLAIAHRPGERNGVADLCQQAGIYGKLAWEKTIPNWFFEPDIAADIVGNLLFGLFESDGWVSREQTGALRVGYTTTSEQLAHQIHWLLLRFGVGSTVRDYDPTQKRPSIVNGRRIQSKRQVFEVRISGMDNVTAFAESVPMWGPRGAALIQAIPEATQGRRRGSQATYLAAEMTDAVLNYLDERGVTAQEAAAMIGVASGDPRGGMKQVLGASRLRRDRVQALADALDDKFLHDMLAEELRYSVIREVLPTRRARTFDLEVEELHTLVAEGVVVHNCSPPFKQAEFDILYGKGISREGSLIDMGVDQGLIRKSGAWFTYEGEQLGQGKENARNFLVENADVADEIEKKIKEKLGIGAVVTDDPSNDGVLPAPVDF

[9] = biological target: T3, Replicative DNA helicase DnaB (Mycobacterium tuberculosis, UniProt P9WMR3); assay: DnaB intein splicing inhibitors, dose response, biochemical, cell-free fluorescence (AID 449749); format: functional
T3 sequence (P9WMR3 whole entry): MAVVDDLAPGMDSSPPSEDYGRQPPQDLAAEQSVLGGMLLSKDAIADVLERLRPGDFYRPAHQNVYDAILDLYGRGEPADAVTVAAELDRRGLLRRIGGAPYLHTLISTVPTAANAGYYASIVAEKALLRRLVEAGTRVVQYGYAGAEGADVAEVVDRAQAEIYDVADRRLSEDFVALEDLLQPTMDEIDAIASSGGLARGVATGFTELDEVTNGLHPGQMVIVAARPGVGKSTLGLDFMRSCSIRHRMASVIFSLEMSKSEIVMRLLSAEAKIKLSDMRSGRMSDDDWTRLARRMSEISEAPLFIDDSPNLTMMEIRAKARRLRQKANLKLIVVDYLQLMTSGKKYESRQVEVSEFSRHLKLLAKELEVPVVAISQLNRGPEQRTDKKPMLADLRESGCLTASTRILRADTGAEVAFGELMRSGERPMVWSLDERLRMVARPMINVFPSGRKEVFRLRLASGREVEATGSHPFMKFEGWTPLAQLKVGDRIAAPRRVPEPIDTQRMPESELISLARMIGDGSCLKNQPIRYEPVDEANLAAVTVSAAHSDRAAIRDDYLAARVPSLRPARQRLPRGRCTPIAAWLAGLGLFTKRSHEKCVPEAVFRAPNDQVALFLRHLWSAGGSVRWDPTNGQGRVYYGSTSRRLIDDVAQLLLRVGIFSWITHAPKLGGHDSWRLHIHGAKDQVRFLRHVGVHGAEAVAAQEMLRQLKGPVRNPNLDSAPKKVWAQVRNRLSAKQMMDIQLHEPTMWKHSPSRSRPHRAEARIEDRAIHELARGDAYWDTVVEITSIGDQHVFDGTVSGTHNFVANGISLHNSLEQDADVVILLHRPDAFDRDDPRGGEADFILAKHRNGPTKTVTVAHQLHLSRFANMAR

[10] = Luminescence Cell-Based Dose Retest to Confirm Inhibitors of Cancer Stem Cells. [Related pubchem assays (depositor defined):AID2717, AID2721]; format: functional; details: Homo sapiens
[11] = viability of uninfected HEp-2 cells – cell-based, HTS, cytotoxicity control for RSV inhibitor project, dose response (AID 2410); format: functional; details: human respiratory syncytial virus
[12] = biological target: Paired box protein Pax-8 (Homo sapiens, UniProt Q06710); assay: PAX8 transcriptional activity inhibition in RMG-I – RMG-I cells, luciferase, cherry-pick, dose response (AID 687027); format: functional, cell-based;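 also: luciferase reporter driven by Pax8 target thyroperoxidase promoter measured by SteadyGlo luminescence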
Chain of Paired box protein Pax-8 (Q06710 whole entry): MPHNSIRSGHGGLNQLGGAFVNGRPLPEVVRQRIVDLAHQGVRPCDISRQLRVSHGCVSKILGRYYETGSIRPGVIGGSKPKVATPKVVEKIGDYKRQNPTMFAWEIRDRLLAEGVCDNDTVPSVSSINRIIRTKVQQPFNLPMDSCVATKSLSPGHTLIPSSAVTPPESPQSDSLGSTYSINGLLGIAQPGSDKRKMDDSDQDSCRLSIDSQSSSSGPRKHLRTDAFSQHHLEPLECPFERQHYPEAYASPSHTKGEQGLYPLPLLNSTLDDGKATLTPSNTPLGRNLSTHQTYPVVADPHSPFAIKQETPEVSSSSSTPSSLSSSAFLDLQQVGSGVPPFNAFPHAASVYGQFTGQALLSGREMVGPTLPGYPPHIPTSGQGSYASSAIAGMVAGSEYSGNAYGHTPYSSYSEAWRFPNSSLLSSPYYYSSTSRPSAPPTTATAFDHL

Chain of Luciferin 4-monooxygenase (P08659 whole entry): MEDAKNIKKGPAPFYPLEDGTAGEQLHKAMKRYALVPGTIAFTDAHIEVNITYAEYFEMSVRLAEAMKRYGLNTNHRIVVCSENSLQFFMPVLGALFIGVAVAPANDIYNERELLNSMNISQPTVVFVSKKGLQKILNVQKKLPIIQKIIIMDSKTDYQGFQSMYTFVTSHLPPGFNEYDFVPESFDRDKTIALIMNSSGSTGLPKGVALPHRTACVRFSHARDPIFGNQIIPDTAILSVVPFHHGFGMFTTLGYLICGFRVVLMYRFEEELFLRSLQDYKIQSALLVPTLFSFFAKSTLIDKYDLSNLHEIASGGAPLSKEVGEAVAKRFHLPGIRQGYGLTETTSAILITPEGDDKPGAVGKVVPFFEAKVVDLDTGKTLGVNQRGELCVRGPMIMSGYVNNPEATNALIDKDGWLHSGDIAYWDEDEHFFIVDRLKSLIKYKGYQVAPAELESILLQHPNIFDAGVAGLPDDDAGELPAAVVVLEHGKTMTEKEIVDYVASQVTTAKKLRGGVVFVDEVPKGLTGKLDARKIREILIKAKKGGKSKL

In the case of `Cc1cccc(C)c1OCC(=O)Nc1cccc(-c2nnc(-c3ccccc3)o2)c1`, the CC50 [1] is reported as 34.9 µM (active).

For `Cc1cc(C=C2C(=O)NC(=S)NC2=O)c(C)n1C1CCCC1`, the IC50 [2] was 10.4 µM (active) and the CC50 [1] was > 40 µM (active).

In the case of `O=S(=O)(c1cccc(-c2nnc(SC(F)F)n2-c2ccccc2)c1)N1CCCCC1`, the EC50 [3] is reported as > 112 µM (not active) and the EC50 [4] is reported as > 112 µM (not active).

For `O=C(/C=C/c1ccccc1)Nn1c(-c2cccs2)nc2ccccc2c1=O`, the EC50 [5] was > 160 µM (inactive) and the EC50 [6] was 0.102 µM (active).

For `Cc1cc(C(=O)COc2ccc3ccc(=O)oc3c2)c(C)n1Cc1cccs1`, the IC50 [7] was 6.2 µM (active).

For `CCOC(=O)c1ccc(COC(=O)c2ccc(-c3nnc(-c4ccccc4)o3)cc2)o1`, the EC50 [3] was 28.5 µM (active), the IC50 [2] was > 50 µM (active) and the EC50 [4] was 8.77 µM (active).

In the case of `CC1=NN(c2ccccc2)C(=O)/C1=C\c1cn(C)c2ccccc12`, the EC50 [8] is reported as 6.5 µM (active) and the AC50 [9] is reported as 17.7 µM (active).

For `CCOc1cc(/C=C2/SC(=S)N(Cc3ccccc3)C2=O)ccc1O`, the AC50 [10] was 1.42 µM (active), the EC50 [8] was 3.96 µM (active) and the AC50 [9] was 38.9 µM (active).

In the case of `COC(=O)c1sc(N)c(C(=O)OC)c1COC(=O)CNS(=O)(=O)c1ccc(C)cc1`, the EC50 [3] is reported as > 112 µM (not active) and the EC50 [4] is reported as > 112 µM (not active).

With `Cc1nnc2n(Cc3ccccc3)c(=O)c3c4c(sc3n12)COC(C(C)C)C4` (centres undefined) the EC50 [3] was > 112 µM (not active), the CC50 [11] was 31.3 µM (active) and the EC50 [4] was > 112 µM (not active).

With `Cc1cc(C(=O)c2ccc(Cl)cc2)c(NC(=O)CCl)s1` the EC50 [8] was 0.481 µM (active) and the AC50 [9] was 24.4 µM (active).

In the case of `O=C(CCCCCNc1nc(S)nc2ccccc12)N1CCN(c2ccccn2)CC1`, the CC50 [1] is reported as > 40 µM (active).

With `Nc1ccc(-c2nc3ccccc3o2)cc1` the EC50 [3] was 51.5 µM (active) and the EC50 [4] was > 112 µM (not active).

In the case of `C=CCOc1ccc(/C=C\c2nc(O)c([N+](=O)[O-])c(O)n2)cc1OC`, the IC50 [7] is reported as 13.7 µM (active).

With `C[C@H](CO)N1C[C@H](C)[C@@H](CN(C)Cc2ccc(Cl)c(Cl)c2)OCCCC[C@H](C)Oc2ccc(NC(=O)Nc3ccc(C(F)(F)F)cc3)cc2C1=O` the AC50 [12] was 4.17 µM (active).

For `O=C(Cc1ccccc1)N/N=C/c1ccc(OCC(=O)Nc2ccccc2)cc1`, the IC50 [7] was 10.2 µM (active).
